Reference: publication PMC6535779, “A Specific, Glycomimetic Langerin Ligand for Human Langerhans Cell Targeting” (ACS Central Science, 2019)

Target: T1, Langerin extracellular domain (ECD) (Homo sapiens, UniProt Q9UJ71)
T1 construct: the trimeric Langerin extracellular domain (ECD) was expressed insolubly in E; made in house
Assay: 19F R2-filtered NMR reporter displacement assay with Langerin
Type: binding
Conditions: for Ki: 19F R2-filtered NMR, 0.1 mM reporter ligand 24, pH 7.8, 25 °C
Description: Receptor Expression and Purification
General remarks. Codon-optimized genes for the expression of Langerin and DC-SIGN in E. coli were purchased from GenScript and Life Technologies, respectively. All growth media or chemicals used for receptor expression and purification were purchased from Carl Roth if not stated otherwise.
Langerin extracellular domain. Expression and purification were conducted as previously published14. Briefly, the trimeric Langerin extracellular domain (ECD) was expressed insolubly in E. coli BL21* (DE3) (Invitrogen). Following enzymatic cell lysis, inclusion bodies were harvested and subsequently solubilized. The sample was centrifuged and the Langerin ECD was refolded overnight via rapid dilution. Next, the sample was dialyzed overnight, centrifuged and purified via mannan-agarose affinity chromatography (Sigma Aldrich). For 19F R2-filtered NMR and lipid-enzyme-linked lectin assay (Lipid-ELLA) experiments, the buffer was exchanged to 25 mM Tris with 150 mM NaCl and 5 mM CaCl2 at pH 7.8 using 7 kDa size-exclusion desalting columns (Thermo Scientific). For […]
D2O, 150 mM NaCl and 5 mM CaCl2 at pH 7. The concentration of Langerin ECD was determined via UV spectroscopy (A280, 0.1% = 2.45). Purity and monodispersity of Langerin ECD samples were analyzed via SDS PAGE and DLS. […]
General remarks. 19F R2-filtered NMR experiments were conducted on a PremiumCompact 600 MHz spectrometer (Agilent). Spectra were processed in MestReNova and data analysis was performed with OriginPro 13, 15. Experiments with the Langerin ECD were performed at a receptor concentration of 50 μM in 25 mM Tris with 10% D2O, 150 mM NaCl and 5 mM CaCl2 at pH 7.8 and 25° C. […]
10% D2O, 150 mM NaCl and 5 mM CaCl2 at pH 7.0 and 25°C. TFA served as an internal reference at a concentration of 50 μM. Apparent relaxation rates R2,obs for the reporter ligand were determined using the CPMG pulse sequence as previously published3-5. […]
KI determination. KI values were determined as previously published for Langerin3. Briefly, titration experiments were conducted at a concentration of 0.1 mM of reporter ligand 24 at five competitor concentrations [I]T. Samples were prepared via serial dilution. For the acids GlcNS, GlcNAc-6-OS and GlcNS-6-OS the pH values were monitored and adjusted to 7.8 if necessary.
General remarks. 15N HSQC NMR experiments were conducted on an Ascend 700 MHz spectrometer (Bruker)16. Spectra were processed in NMRPipe17. Data analysis was performed using CCPN Analysis, MatLab and OriginPro15, 18-19. Experiments with the Langerin CRD were performed at a receptor concentration of 100 μM in 25 mM HEPES with 10% D 2O, 150 mM NaCl and 5 mM CaCl2 at pH 7.8 and 25° C. DSS-d6 served as an internal reference at a concentration of 100 μM. Spectra were referenced via the internal spectrometer reference. Spectra were acquired with 128 increments and 32 scans per increments for 150 μl samples in 3 mm sample tubes. The relaxation delay d1 was set to 1.4 s and the acquisition time tacq was set to 100 ms. The W5 Watergate pulse sequence was used for solvent suppression20. The used resonance assignment for the Langerin CRD has been published […]
KD determination. KD values were determined in titration experiments at six ligand concentrations [L]T. Samples were prepared via serial dilution. Chemical shift perturbations CSPs for Langerin CRD resonances in the fast or fast-to-intermediate exchange regime observed upon titration with ligand were calculated via Equation 121.

[1] = calculated utilizing the KI value determined for 21

T1 sequence (Q9UJ71 65-328 limits assumed): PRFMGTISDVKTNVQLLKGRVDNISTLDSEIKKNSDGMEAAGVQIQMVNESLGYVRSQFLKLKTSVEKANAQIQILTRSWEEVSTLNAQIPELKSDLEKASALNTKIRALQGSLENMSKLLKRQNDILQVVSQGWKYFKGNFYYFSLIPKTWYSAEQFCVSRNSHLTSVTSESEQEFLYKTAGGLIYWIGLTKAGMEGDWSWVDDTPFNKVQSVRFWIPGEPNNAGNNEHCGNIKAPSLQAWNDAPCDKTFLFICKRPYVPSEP

Question: Which Ki does the source give for CC(=O)NCCO[C@@H]1O[C@H](CO)[C@@H](O)[C@H](O)[C@H]1NS(=O)(=O)c1ccc(C)cc1 [compound 16] here?
Answer: 240 ± 30 µM

Question: And the “Relative potency, Langerin” value [1]?
Answer: 42

Question: And the “affinity increase over Man-based reference molecule 21” value (from KI values, Langerin, b47 words it as over natural glycans)?
Answer: 42 fold

Question: How did the Ki turn out when CC(=O)NCCO[C@H]1O[C@H](CO)[C@@H](O)[C@H](O)[C@@H]1O [compound 21] was run?
Answer: 10000 ± 1000 µM

Question: What about the “Relative potency, Langerin” value [1] of the same compound?
Answer: 1.0

Question: For Cc1ccc(S(=O)(=O)N[C@H]2C(O)O[C@H](CO)[C@@H](O)[C@@H]2O)cc1 (stereo partly drawn) [compound 2], which Ki is on record?
Answer: 320 ± 50 µM

Question: What about the “Relative potency, Langerin” value [1] of the same compound?
Answer: 31

Question: And the “Relative potency, Langerin” value (calculated utilizing the KI value determined for GlcNAc)?
Answer: 13

Question: And the “affinity increase over GlcNAc” value (from KI values, Langerin)?
Answer: 13 fold
